target: 5-hydroxytryptamine receptor 2A (Rattus norvegicus) (UniProt P14842); assay: Antagonist activity at 5HT2A receptor in Sprague-Dawley rat assessed as inhibition of 5HT-induced pulmonary arterial pressure at 100 uM relative to 5HT; type: functional
Sequence (P14842 whole entry): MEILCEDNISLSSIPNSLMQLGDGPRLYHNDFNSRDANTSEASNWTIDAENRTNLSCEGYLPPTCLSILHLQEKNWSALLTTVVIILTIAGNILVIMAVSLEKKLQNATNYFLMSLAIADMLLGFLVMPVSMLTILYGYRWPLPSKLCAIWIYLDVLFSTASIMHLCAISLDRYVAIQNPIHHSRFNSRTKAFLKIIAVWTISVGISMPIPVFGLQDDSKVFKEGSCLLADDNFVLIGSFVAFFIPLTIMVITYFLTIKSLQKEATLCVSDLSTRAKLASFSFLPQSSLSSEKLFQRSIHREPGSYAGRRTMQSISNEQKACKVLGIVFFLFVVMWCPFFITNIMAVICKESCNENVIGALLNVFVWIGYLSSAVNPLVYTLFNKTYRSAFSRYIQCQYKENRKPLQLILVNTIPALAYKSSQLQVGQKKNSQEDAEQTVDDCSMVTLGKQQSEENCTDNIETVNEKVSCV

SMILES	inhibition [%]
CN1CCc2c(sc3[nH]c(=O)n(CCN4CCN(c5ccc(F)cc5)CC4)c(=O)c23)C1	63
CCOC(=O)c1c(NC(=O)CN2CCN(c3ccccc3OC)CC2)sc2c1CCN(C)C2	88
CN1CCc2c(sc3[nH]c(=O)n(CCN4CCN(c5ccccc5)CC4)c(=O)c23)C1	60
O=c1[nH]c2sc3c(c2c(=O)n1CCN1CCN(c2ccccc2)CC1)CCC3	86
CCOC(=O)c1c(NC(=O)CN2CCN(c3ccccc3)CC2)sc2c1CCN(C)C2	62
COc1ccccc1N1CCN(CCn2c(=O)[nH]c3sc4c(c3c2=O)CCN(C)C4)CC1	65
CCOC(=O)c1c(NC(=O)CN2CCN(c3ccccc3OCC)CC2)sc2c1CCN(C)C2	65

— ChEMBL document CHEMBL1157862, “Synthesis and pharmacological evaluation of novel fused thiophene derivatives as 5-HT2A receptor antagonists: molecular modeling study” (Eur J Med Chem, 2010)
